Experimental data: patent publication US9556179B2 (BRISTOL-MYERS SQUIBB COMPANY, priority 2012, dated 2017)

Assays:
CK1δ = CK1δ (Homo sapiens (Human), UniProt P48730); assay: CK1δ kinase assay (Caliper LABCHIP electrophoretic separation of fluoresceinated peptide substrate and product); assay type: biochemical; details: 200 pM enzyme, 50 μM ATP, 22 hours at room temperature
Procedure, shortened: (§1)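 IC50 values were obtained by non-linear regression from eleven-concentration titrations. The kinase reactions were incubated for 22 hours at room temperature before termination with 35 mM EDTA.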

CK1ε = CK1ε (Homo sapiens (Human), UniProt P49674); assay: CK1ε kinase assay (Caliper LABCHIP electrophoretic separation of fluoresceinated peptide substrate and product); assay type: biochemical; details: 200 pM enzyme, 50 μM ATP, 22 hours at room temperature
CK1ε, sequence (P49674 whole entry): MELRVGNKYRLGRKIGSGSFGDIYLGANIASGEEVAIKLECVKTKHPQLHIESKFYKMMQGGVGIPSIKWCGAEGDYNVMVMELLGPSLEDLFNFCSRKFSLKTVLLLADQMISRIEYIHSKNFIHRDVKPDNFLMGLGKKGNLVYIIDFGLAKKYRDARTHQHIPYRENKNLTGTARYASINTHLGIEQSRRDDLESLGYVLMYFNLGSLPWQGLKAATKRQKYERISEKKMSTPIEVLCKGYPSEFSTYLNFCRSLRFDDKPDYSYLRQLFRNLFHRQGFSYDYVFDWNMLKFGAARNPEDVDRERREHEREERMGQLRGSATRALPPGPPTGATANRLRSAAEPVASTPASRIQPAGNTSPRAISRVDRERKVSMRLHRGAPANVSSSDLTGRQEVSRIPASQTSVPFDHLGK
Procedure, shortened: as §1

CK1δ, sequence (P48730 whole entry): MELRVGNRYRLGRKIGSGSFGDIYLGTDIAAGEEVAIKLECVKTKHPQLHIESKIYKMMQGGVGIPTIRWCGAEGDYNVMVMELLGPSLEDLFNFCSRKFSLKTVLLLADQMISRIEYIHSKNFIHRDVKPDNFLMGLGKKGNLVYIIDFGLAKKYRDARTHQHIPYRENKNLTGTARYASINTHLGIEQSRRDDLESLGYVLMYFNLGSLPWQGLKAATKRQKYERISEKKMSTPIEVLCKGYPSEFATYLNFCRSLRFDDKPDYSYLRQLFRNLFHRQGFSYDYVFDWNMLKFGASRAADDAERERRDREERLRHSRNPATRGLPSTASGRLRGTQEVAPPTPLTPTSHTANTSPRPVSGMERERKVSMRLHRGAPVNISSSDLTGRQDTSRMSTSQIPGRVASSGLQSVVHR

`Cc1nc(-c2ccc(Cl)cc2)c(-c2ccc3nc(NC(=O)c4ccnc(F)c4)cn3n2)n1C` [Compound 296, N-(6-(4-(4-chlorophenyl)-1,2-dimethyl-1H-imidazol-5-yl)imidazo[1,2-b]pyridazin-2-yl)-2-fluoroisonicotinamide] gave an IC50 (CK1δ) of 0.519 nM and an IC50 (CK1ε) of 10.2 nM.
For `Cc1cc(-c2nc(C)n(CC(F)F)c2-c2ccc3nc(NC(=O)c4ccnc(F)c4)cn3n2)ccc1F` [Compound 297], the IC50 (CK1δ) was 0.354 nM and the IC50 (CK1ε) was 2.26 nM.
With `Cc1cc(-c2nc(C)n(C)c2-c2ccc3nc(NC(=O)c4ccnc(F)c4)cn3n2)ccc1F` [Compound 298, 2-fluoro-N-(6-(4-(4-fluoro-3-methylphenyl)-1,2-dimethyl-1H-imidazol-5-yl)imidazo[1,2-b]pyridazin-2-yl)isonicotinamide] the IC50 (CK1δ) was 0.714 nM and the IC50 (CK1ε) was 5.29 nM.
Compound `Cc1cc(-c2nc(C)n(CCF)c2-c2ccc3nc(NC(=O)c4ccnc(F)c4)cn3n2)ccc1F` [Compound 299, 2-fluoro-N-(6-(4-(4-fluoro-3-methylphenyl)-1-(2-fluoroethyl)-2-methyl-1H-imidazol-5-yl)imidazo[1,2-b]pyridazin-2-yl) isonicotinamide] has an IC50 (CK1δ) of 0.186 nM and an IC50 (CK1ε) of 0.76 nM.
`Cc1ccc(-c2nc(C)n(C)c2-c2ccc3nc(NC(=O)c4ccnc(F)c4)cn3n2)cc1` [Compound 300, N-(6-(1,2-dimethyl-4-(p-tolyl)-1H-imidazol-5-yl)imidazo[1,2-b]pyridazin-2-yl)-2-fluoroiso-nicotinamide] was tested, and the IC50 (CK1δ) was 1.8 nM and the IC50 (CK1ε) was 34.3 nM.
Work on `Cc1nc(-c2ccc(F)cc2)c(-c2ccc3nc(NC(=O)c4cncs4)cn3n2)n1C` [Compound 303, N-(6-(4-(4-fluorophenyl)-1,2-dimethyl-1H-imidazol-5-yl)imidazo[1,2-b]pyridazin-2-yl)thiazole-5-carboxamide] yielded an IC50 (CK1δ) of 3.9 nM and an IC50 (CK1ε) of 4.4 nM.
Compound `Cc1nc(-c2ccc(F)cc2)c(-c2ccc3nc(NC(=O)c4coc(-c5ccncc5)n4)cn3n2)n1C` [Compound 304, N-(6-(4-(4-fluorophenyl)-1,2-dimethyl-1H-imidazol-5-yl)imidazo[1,2-b]pyridazin-2-yl)-2-(pyridin-4-yl)oxazole-4-carboxamide] has an IC50 (CK1δ) of 3.44 nM and an IC50 (CK1ε) of 48.5 nM.
For `Cc1nc(-c2ccncc2)sc1C(=O)Nc1cn2nc(-c3c(-c4ccc(F)cc4)nc(C)n3C)ccc2n1` [Compound 308, N-(6-(4-(4-fluorophenyl)-1,2-dimethyl-1H-imidazol-5-yl)imidazo[1,2-b]pyridazin-2-yl)-4-methyl-2-(pyridin-4-yl) thiazole-5-carboxamide], the IC50 (CK1δ) was 0.322 nM and the IC50 (CK1ε) was 5.26 nM.
In the case of `Cc1nc(-c2ccc(F)cc2)c(-c2ccc3nc(NC(=O)c4cnc5ccccc5n4)cn3n2)n1C` [Compound 310, N-(6-(4-(4-fluorophenyl)-1,2-dimethyl-1H-imidazol-5-yl)imidazo[1,2-b]pyridazin-2-yl) quinoxaline-2-carboxamide], the IC50 (CK1δ) is reported as 1.03 nM and the IC50 (CK1ε) is reported as 8.37 nM.
`Cc1nc(-c2ccc(F)cc2)c(-c2ccc3nc(NC(=O)c4cc5ccccc5cn4)cn3n2)n1C` [Compound 311, N-(6-(4-(4-fluorophenyl)-1,2-dimethyl-1H-imidazol-5-yl)imidazo[1,2-b]pyridazin-2-yl) isoquinoline-3-carboxamide] showed an IC50 (CK1δ) of 33.9 nM and an IC50 (CK1ε) of 46.9 nM.
Work on `Cc1nc(-c2ccc(F)cc2)c(-c2ccc3nc(NC(=O)c4ccc5ncccc5n4)cn3n2)n1C` [Compound 312, N-(6-(4-(4-fluorophenyl)-1,2-dimethyl-1H-imidazol-5-yl)imidazo[1,2-b]pyridazin-2-yl)-1,5-naphthyridine-2-carboxamide] yielded an IC50 (CK1δ) of 8.38 nM and an IC50 (CK1ε) of 19.6 nM.
`Cc1nc(-c2ccc(F)cc2)c(-c2ccc3nc(NC(=O)c4ccc5ccncc5c4)cn3n2)n1C` [Compound 313, N-(6-(4-(4-fluorophenyl)-1,2-dimethyl-1H-imidazol-5-yl)imidazo[1,2-b]pyridazin-2-yl)isoquinoline-7-carbox-amide] gave an IC50 (CK1δ) of 0.691 nM and an IC50 (CK1ε) of 1.89 nM.
With `Cc1nc(-c2ccc(F)cc2)c(-c2ccc3nc(NC(=O)c4ccc(-n5cccn5)nc4)cn3n2)n1C` [Compound 314, N-(6-(4-(4-fluorophenyl)-1,2-dimethyl-1H-imidazol-5-yl)imidazo[1,2-b]pyridazin-2-yl)-6-(1H-pyrazol-1-yl) nicotinamide] the IC50 (CK1δ) was 0.479 nM and the IC50 (CK1ε) was 3.1 nM.
With `Cc1nc(-c2ccc(F)cc2)c(-c2ccc3nc(NC(=O)[C@@H]4CCCN4)cn3n2)n1C` [Compound 315, (S)-N-(6-(4-(4-fluorophenyl)-1,2-dimethyl-1H-imidazol-5-yl)imidazo[1,2-b]pyridazin-2-yl)pyrrolidine-2-carbox-amide] the IC50 (CK1δ) was 19.8 nM and the IC50 (CK1ε) was 375 nM.
`Cc1nc(-c2ccc(F)cc2)c(-c2ccc3nc(NC(=O)[C@@H]4CC(F)(F)CN4)cn3n2)n1C` [Compound 316, (S)-4,4-difluoro-N-(6-(4-(4-fluorophenyl)-1,2-dimethyl-1H-imidazol-5-yl)imidazo[1,2-b]pyridazin-2-yl)pyrrolidine-2-carboxamide] gave an IC50 (CK1δ) of 3.09 nM and an IC50 (CK1ε) of 39.4 nM.
`Cc1nc(-c2ccc(F)cc2)c(-c2ccc3nc(NC(=O)c4cc5ccccc5[nH]4)cn3n2)n1C` [Compound 319, N-(6-(4-(4-fluorophenyl)-1,2-dimethyl-1H-imidazol-5-yl)imidazo[1,2-b]pyridazin-2-yl)-1H-indole-2-carboxamide] showed an IC50 (CK1δ) of 1.73 nM and an IC50 (CK1ε) of 12.1 nM.
`Cc1nc(-c2ccc(F)cc2)c(-c2ccc3nc(NC(=O)c4ccnc(F)c4)cn3n2)n1C` [Compound 320, 2-fluoro-N-(6-(4-(4-fluoro-phenyl)-1,2-dimethyl-1H-imidazol-5-yl)imidazo[1,2-b]pyridazin-2-yl)isonicotin-amide] was tested, and the IC50 (CK1δ) was 0.274 nM and the IC50 (CK1ε) was 1.86 nM.
Work on `Cc1nc(-c2ccc(F)cc2)c(-c2ccc3nc(NC(=O)c4ccc(F)nc4)cn3n2)n1C` [Compound 321, 6-fluoro-N-(6-(4-(4-fluoro-phenyl)-1,2-dimethyl-1H-imidazol-5-yl)imidazo[1,2-b]pyridazin-2-yl)nicotinamide] yielded an IC50 (CK1δ) of 0.152 nM and an IC50 (CK1ε) of 1.97 nM.
For `Cc1nc(-c2ccc(F)cc2)c(-c2ccc3nc(NC(=O)c4ccc(O)nc4)cn3n2)n1C` [Compound 322, N-(6-(4-(4-fluorophenyl)-1,2-dimethyl-1H-imidazol-5-yl)imidazo[1,2-b]pyridazin-2-yl)-6-hydroxynicotinamide], the IC50 (CK1δ) was 0.473 nM and the IC50 (CK1ε) was 4.76 nM.
Work on `Cc1nc(-c2ccc(F)cc2)c(-c2ccc3nc(NC(=O)c4ccnc(N5CCOCC5)c4)cn3n2)n1C` [Compound 324, N-(6-(4-(4-fluorophenyl)-1,2-dimethyl-1H-imidazol-5-yl)imidazo[1,2-b]pyridazin-2-yl)-2-morpholinoisonicotin-amide] yielded an IC50 (CK1δ) of 0.344 nM and an IC50 (CK1ε) of 1.91 nM.
With `Cc1nc(-c2ccc(F)cc2)c(-c2ccc3nc(NC(=O)c4cccc(-c5cccnc5)c4)cn3n2)n1C` [Compound 325, N-(6-(4-(4-fluorophenyl)-1,2-dimethyl-1H-imidazol-5-yl)imidazo[1,2-b]pyridazin-2-yl)-3-(pyridin-3-yl) benzamide] the IC50 (CK1δ) was 0.323 nM and the IC50 (CK1ε) was 1.44 nM.
In the case of `Cc1cc[nH]c1C(=O)Nc1cn2nc(-c3c(-c4ccc(F)cc4)nc(C)n3C)ccc2n1` [Compound 326, N-(6-(4-(4-fluorophenyl)-1,2-dimethyl-1H-imidazol-5-yl)imidazo[1,2-b]pyridazin-2-yl)-3-methyl-1H-pyrrole-2-carboxamide], the IC50 (CK1δ) is reported as 2.68 nM and the IC50 (CK1ε) is reported as 12.3 nM.
`Cc1nc(-c2ccc(F)cc2)c(-c2ccc3nc(NC(=O)c4cc5cnccc5[nH]4)cn3n2)n1C` [Compound 327, N-(6-(4-(4-fluorophenyl)-1,2-dimethyl-1H-imidazol-5-yl)imidazo[1,2-b]pyridazin-2-yl)-1H-pyrrolo[3,2-c] pyridine-2-carboxamide] gave an IC50 (CK1δ) of 0.676 nM and an IC50 (CK1ε) of 6.08 nM.
`Cc1nc(-c2ccc(F)cc2)c(-c2ccc3nc(NC(=O)c4cccc5ncccc45)cn3n2)n1C` [Compound 328, N-(6-(4-(4-fluorophenyl)-1,2-dimethyl-1H-imidazol-5-yl)imidazo[1,2-b]pyridazin-2-yl)-5-quinolinecarboxamide] was tested, and the IC50 (CK1δ) was 0.335 nM and the IC50 (CK1ε) was 2.13 nM.
With `Cc1nc(-c2ccc(F)cc2)c(-c2ccc3nc(NC(=O)c4ccc(-c5ccc(Cl)cc5)[nH]4)cn3n2)n1C` [Compound 329, 5-(4-chlorophenyl)-N-(6-(4-(4-fluorophenyl)-1,2-di-methyl-1H-imidazol-5-yl)imidazo[1,2-b]pyridazin-2-yl)-1H-pyrrole-2-carboxamide] the IC50 (CK1δ) was 3.47 nM and the IC50 (CK1ε) was 18.5 nM.
For `Cc1nc(-c2ccc(F)cc2)c(-c2ccc3nc(NC(=O)c4cccc5cnccc45)cn3n2)n1C` [Compound 330, N-(6-(4-(4-fluorophenyl)-1,2-dimethyl-1H-imidazol-5-yl)imidazo[1,2-b]pyridazin-2-yl)-5-isoquinoline-carboxamide], the IC50 (CK1δ) was 0.373 nM and the IC50 (CK1ε) was 3.34 nM.
Work on `Cc1nc(-c2ccc(F)cc2)c(-c2ccc3nc(NC(=O)c4cccc5ccncc45)cn3n2)n1C` [Compound 331, N-(6-(4-(4-fluorophenyl)-1,2-dimethyl-1H-imidazol-5-yl)imidazo[1,2-b]pyridazin-2-yl)-8-isoquinoline-carboxamide] yielded an IC50 (CK1δ) of 0.249 nM and an IC50 (CK1ε) of 1.45 nM.
Work on `Cc1nc(-c2ccc(F)cc2)c(-c2ccc3nc(NC(=O)c4cc5ccc(F)cc5[nH]4)cn3n2)n1C` [Compound 332, 6-fluoro-N-(6-(4-(4-fluoro-phenyl)-1,2-dimethyl-1H-imidazol-5-yl)imidazo[1,2-b]pyridazin-2-yl)-1H-indole-2-carboxamide] yielded an IC50 (CK1δ) of 0.87 nM and an IC50 (CK1ε) of 6.86 nM.
`Cc1nc(-c2ccc(F)cc2)c(-c2ccc3nc(NC(=O)c4ccc(-c5ccccc5)[nH]4)cn3n2)n1C` [Compound 333, N-(6-(4-(4-fluorophenyl)-1,2-dimethyl-1H-imidazol-5-yl)imidazo[1,2-b]pyridazin-2-yl)-5-phenyl-1H-pyrrole-2-carboxamide] was tested, and the IC50 (CK1δ) was 1.33 nM and the IC50 (CK1ε) was 3.28 nM.
